{
  "source": "patent US12653808B2",
  "about": "“Compounds for treating multiple myeloma” (Purdue Pharma L.P., priority 2018, dated 2026)",
  "key": {"[1]": {"test_system": "patients with relapsed/refractory hematologic malignancies", "assay": "Biochemistry: clinical chemistry abnormalities and TEAEs", "type": "in vivo, human", "description": "(§1) Other safety assessments included physical examinations, Eastern Cooperative Oncology Group (ECOG) performance status determinations, electrocardiograms (ECGs), pregnancy testing for women of childbearing potential, documentation of treatment-emergent adverse events (TEAEs), clinical laboratory evaluations including haematology, blood chemistry and urinalysis, vital signs, and documentation of concomitant medication usage."}, "multiple myeloma [2]": {"test_system": "multiple myeloma", "assay": "Tumour assessment: response to treatment, patients with multiple myeloma", "type": "in vivo, human", "conditions": "19 patients with MM", "description": "(§2) Response to treatment included evaluation of overall response rate (patients with a CR plus patients with a PR), clinical benefit (CB) rate (patients with CR plus patients with PR plus patients with stable disease (SD)), progression free survival, and overall survival according to the relevant response criteria."}, "[3]": {"test_system": "relapsed/refractory hematologic malignancies", "assay": "Tumour assessment: response to treatment, all HM", "type": "in vivo, human", "conditions": "all 46 patients", "description": "as §2"}, "[4]": {"test_system": "patients with relapsed/refractory hematologic malignancies", "assay": "Phase 1 dose escalation trial: safety, treatment-emergent adverse events, DLT/MTD (NCI CTCAE v4.03)", "type": "in vivo, human", "conditions": "for recommended starting dose, relapse refractory multiple myeloma: 60 minutes infusion, day 1 and day 15 of 28-day cycle", "protocol": "A phase 1 trial was carried out including a dose escalation study to investigate the safety, pharmacokinetic (PK) profiles and efficacy of tinostamustine (EDO-S101) in relapsed/refractory hematologic malignancies.\nThe patient had relapsed/refractory hematologic malignancies for which there are no available therapies.\nThe assessment of dose-limiting toxicities (DLTs) was based on cycle 1 events alone. Toxicities were assessed regarding type and severity using the National Cancer Institute (NCI) Common Terminology Criteria for Adverse Events (CTCAE) version 4.03, June 2010. Toxicity data were collected for all patients throughout their time on study. Infusion site reactions were assessed using the Phlebitis Scale developed by the Infusion Nurses Society (2011).\nDLTs, which were at least possibly related to study drug, were defined as: • Any Grade 3 or 4 non-hematologic toxicity (excluding alopecia and easily correctable electrolyte abnormalities); • Nausea, vomiting or diarrhoea that persists beyond 10 days despite aggressive symptomatic treatment; • Grade 4 neutropenia or thrombocytopenia lasting for 7 days or more; • Any grade 2 or more toxicity, but persist for over 3 weeks; and • Any toxicity resulting in a delay of the next dose administration (cycle 2 day 1≥14).\nTo ensure patients' safety, the stopping rules were implemented to the dose escalation stage of the study.\nas §1\nIf there is no DLT observed in any of these subjects, the trial proceeds to enroll additional subjects into the next higher dose cohort. If one subject develops a DLT at a specific dose, an additional three subjects are enrolled into that same dose cohort."}, "[5]": {"test_system": "lymphoma (Hodgkin and non-Hodgkin)", "assay": "Tumour assessment: response to treatment, patients with lymphoma", "type": "in vivo, human", "conditions": "27 patients with lymphoma", "description": "as §2"}, "[6]": {"assay": "PK assessment: plasma concentrations of tinostamustine and metabolites M2 and M8, cycle 1 day one", "type": "in vivo, human", "protocol": "Plasma samples were collected to determine the concentrations of tinostamustine and its metabolites (labelled M2 and M8) by a method fully validated according to the relevant guidelines. The PK profiles of tinostamustine in plasma were assessed in each patient in the escalation stage of the study, in cycle 1 only.\nPatients of all cohorts and over all dose levels were sampled according to the following schedule: 0.5 hours prior to dose administration, and at 15, 30 and 45 minutes and 1, 1.25, 1.50, 2, 3, 8, 24, 48 and 72 hours from the start of tinostamustine infusion. Plasma samples were collected according to the Laboratory Manual for the determination of tinostamustine and metabolites M2 and M8 concentrations using a method fully validated according to the relevant guidelines."}, "multiple myeloma [7]": {"test_system": "multiple myeloma", "conditions": "López-Iglesias et al, J Hematol Oncol 2017, 10, 127; cited from earlier work"}, "[8]": {"assay": "Compartmental population PK analysis of tinostamustine", "type": "in vivo, human", "conditions": "dose range 20 to 120 mg/m^2, infusion times 30 to 60 minutes", "protocol": "A compartmental population PK analysis of tinostamustine was conducted to characterize its concentration-time profiles and its dependency on patient factors. For the analysis, the 24 hours plasma concentrations of tinostamustine at day one from 36 patients was used from whom the data was available. The concentration-time profiles were best described with a two-compartmental model with first order clearance from the central compartment."}, "[9]": {"test_system": "patients with relapsed/refractory hematologic malignancies", "assay": "Cardiac safety: electrocardiograms and cardiac disorders", "type": "in vivo, human", "description": "as §1"}, "[10]": {"conditions": "all cohorts administered over 30 or 45 minutes"}, "[11]": {"conditions": "doses of 20 to 80 mg/m^2, 60 min cohorts"}, "[12]": {"conditions": "doses of 100 or 120 mg/m^2, 60 min cohorts"}},
  "note": "Values joined by “and” are separate entries in the source; they are usually repeats but may differ in a detail not shown here. Equal values may be shown once.",
  "data": [
    {"smiles": "Cn1c(CCCCCCC(=O)NO)nc2cc(N(CCCl)CCCl)ccc21", "note": "[tinostamustine]", "values": [
      {"measurement": "C-reactive protein increased TEAE", "setting": "[1]; all patients", "value": 4, "unit": "%"},
      {"measurement": "blood creatinine increased TEAE", "setting": "[1]; all patients", "value": 9, "unit": "%"},
      {"measurement": "blood potassium decreased/hypokalemia TEAE", "setting": "[1]; all patients", "value": 11, "unit": "%"},
      {"measurement": "grade 3 hyperuricemia TEAE", "setting": "[1]; considered unrelated to study drug", "value": 2, "unit": "%"},
      {"measurement": "treatment-emergent shift to grade 3 aspartate aminotransferase increased and grade 3 hypoalbuminemia (each)", "setting": "[1]; patients with normal or grade 1 or 2 values at baseline", "value": 2, "unit": "%"},
      {"measurement": "best response PD", "setting": "multiple myeloma [2]", "value": 47, "unit": "%"},
      {"measurement": "best response PD", "setting": "[3]", "value": 41, "unit": "%"},
      {"measurement": "patients with Grade 3 and 4 thrombocytopenia in C2 and C3 leading to withdrawal", "setting": "[4]; 100 mg/m^2 over 60 minutes", "value": "three patients"},
      {"measurement": "DLT", "setting": "[4]; 120 mg/m^2, lymphoma cohort", "value": "Thrombocytopenia"},
      {"measurement": "serious thrombocytopenia (grade 3), also led to study discontinuation", "setting": "[4]; HM120/60 cohort patient, of all patients", "value": 2, "unit": "%"},
      {"measurement": "TEAE with outcome of death", "setting": "[4]; Patients (N = 46), number (percent)", "value": "0 (0)"},
      {"measurement": "leukopenia, incidence", "setting": "[4]; administered over 30 or 45 minutes", "value": 16, "unit": "%"},
      {"measurement": "leukopenia, incidence", "setting": "[4]; administered over 60 minutes", "value": 27, "unit": "%"},
      {"measurement": "thrombocytopenia, incidence", "setting": "[4]; administered over 60 minutes", "value": 58, "unit": "%"},
      {"measurement": "SAE dyspnea, hypersensitivity, osteomyelitis, pleural effusion, pneumonia, and thrombocytopenia (each)", "setting": "[4]; all 46 patients", "value": 2, "unit": "%"},
      {"measurement": "SAE febrile neutropenia and sepsis (each)", "setting": "[4]; all 46 patients", "value": 2, "unit": "%"},
      {"measurement": "all other TEAEs, incidence", "setting": "[4]; all 46 patients", "value": "< 20", "unit": "%"},
      {"measurement": "discontinuation because of adverse events (AE)", "setting": "[4]; all 46 patients", "value": 29, "unit": "%"},
      {"measurement": "grade 3/4 anemia, incidence", "setting": "[4]; all 46 patients", "value": 22, "unit": "%"},
      {"measurement": "grade 3/4 leukopenia/WBC decreased, incidence", "setting": "[4]; all 46 patients", "value": "15% and 16%"},
      {"measurement": "grade 3/4 lymphopenia, incidence", "setting": "[4]; all 46 patients", "value": 8.6, "unit": "%"},
      {"measurement": "grade 3/4 neutropenia/neutrophil count decreased, incidence", "setting": "[4]; all 46 patients", "value": 29, "unit": "%"},
      {"measurement": "grade 3/4 thrombocytopenia, incidence", "setting": "[4]; all 46 patients", "value": "39% and 40%"},
      {"measurement": "nausea, incidence", "setting": "[4]; all 46 patients", "value": 29, "unit": "%"},
      {"measurement": "other TEAEs leading to study drug discontinuation (anaphylactic reaction, febrile neutropenia, hypersensitivity, pleural effusion, pruritus; each)", "setting": "[4]; all 46 patients", "value": 2, "unit": "%"},
      {"measurement": "patients with at least one TEAE considered study drug-related", "setting": "[4]; all 46 patients", "value": 38, "unit": "patients"},
      {"measurement": "anaemia, incidence", "setting": "[4]; all 46 patients, any grade", "value": 39, "unit": "%"},
      {"measurement": "leukopenia/WBC decreased, incidence", "setting": "[4]; all 46 patients, any grade", "value": "21% and 22%"},
      {"measurement": "neutropenia/neutrophil count decreased, incidence", "setting": "[4]; all 46 patients, any grade", "value": "29% and 28%"},
      {"measurement": "thrombocytopenia/platelet count decreased, incidence", "setting": "[4]; all 46 patients, any grade", "value": 52, "unit": "%"},
      {"measurement": "anaemia, incidence", "setting": "[4]; [10]", "value": 37, "unit": "%"},
      {"measurement": "thrombocytopenia, incidence", "setting": "[4]; [10]", "value": 47, "unit": "%"},
      {"measurement": "recommended starting dose, relapse refractory multiple myeloma", "setting": "[4]; baseline platelet count 100×10^9/L", "value": 50, "unit": "mg/m^2"},
      {"measurement": "recommended starting dose, relapse refractory multiple myeloma", "setting": "[4]; baseline platelet count >100×10^9/L", "value": 60, "unit": "mg/m^2"},
      {"measurement": "grade 3 or 4 anaemia, incidence", "setting": "[4]; doses of 20 to 80 mg/m^2", "value": 8, "unit": "%"},
      {"measurement": "anaemia, incidence", "setting": "[4]; [11]", "value": 25, "unit": "%"},
      {"measurement": "grade 3/4 thrombocytopenia, incidence", "setting": "[4]; [11]", "value": 8, "unit": "%"},
      {"measurement": "leukopenia, incidence", "setting": "[4]; [11]", "value": 17, "unit": "%"},
      {"measurement": "neutropenia, incidence", "setting": "[4]; [11]", "value": 25, "unit": "%"},
      {"measurement": "grade 3 or 4 anaemia, incidence", "setting": "[4]; doses of 100 or 120 mg/m^2", "value": 36, "unit": "%"},
      {"measurement": "anaemia, incidence", "setting": "[4]; [12]", "value": 64, "unit": "%"},
      {"measurement": "grade 3/4 thrombocytopenia, incidence", "setting": "[4]; [12]", "value": 71, "unit": "%"},
      {"measurement": "leukopenia, incidence", "setting": "[4]; [12]", "value": 36, "unit": "%"},
      {"measurement": "neutropenia, incidence", "setting": "[4]; [12]", "value": 50, "unit": "%"},
      {"measurement": "patients who experienced DLTs", "setting": "[4]; lymphoma cohort, 120 mg/m^2 over 1 hour", "value": "Two out of six"},
      {"measurement": "neutropenia, incidence", "setting": "[4]; shorter infusion times", "value": 16, "unit": "%"},
      {"measurement": "best response PD", "setting": "[5]", "value": 37, "unit": "%"},
      {"measurement": "Cmax Mean (SD)", "setting": "[6]; dose 60 mg/m^2, infusion time 30 minutes", "value": "1724 (1416) ng/mL"},
      {"measurement": "AUC Mean (SD)", "setting": "[6]; dose 80 mg/m^2, infusion time 60 minutes", "value": "902 (653) h · ng/mL"},
      {"measurement": "AUC Mean (SD)", "setting": "[6]; dose 120 mg/m^2, infusion time 60 minutes", "value": "1638 (578) h · ng/mL"},
      {"measurement": "activity in in vitro and in vivo models against multiple myeloma", "setting": "multiple myeloma [7]", "value": "potent activity"},
      {"measurement": "dose linearity of PK", "setting": "[8]", "value": "dose-linear"},
      {"measurement": "treatment-emergent ECG abnormality indicated to be clinically significant", "setting": "[9]; all patients", "value": "No patient"},
      {"measurement": "treatment-emergent QTcF interval >500 msec", "setting": "[9]; all patients", "value": "One patient"},
      {"measurement": "prolonged QTcF interval", "setting": "[9]; one subject, MM 80/45 cohort, discontinuation visit three weeks after only dose, screening QTcF 423 msec", "value": 677, "unit": "ms"},
      {"measurement": "cardiac disorder considered study drug-related (grade 1 palpitations)", "setting": "[9]; overall", "value": 2, "unit": "%"}
    ]}
  ]
}
